The text below walks through data of patent US20250213523A1, “COMBINATION OF HDAC INHIBITORS AND STATINS FOR USE IN THE TREATMENT OF PANCREATIC CANCER” (ISTITUTO NAZIONALE TUMORI IRCCS - FONDAZIONE G. PASCALE, priority 2022, published 2025).

For one experiment, the system named is MDA-PANC28. In words: Cell proliferation assay (Sulforhodamine B), IC50. It is filed as cell-based. The settings on record: Homo sapiens, MDA-Panc-28; MDA-PANC28, 96 hours of treatment; read-out: IC50 96 h mean ± SD. The protocol:
(§1) Cell proliferation was measured in 96-well plates in cells untreated and treated with described drugs as single agent or in combination. […] Drugs combination studies were based on concentration-effect curves generated as a plot of the fraction of unaffected (surviving) cells versus drug concentration after 96 h of treatment. Synergism, additivity, and antagonism were quantified after an evaluation of the Combination Index (CI), which was calculated by the Chou-Talalay equation with CalcuSyn software (Biosoft, Cambridge, UK-Chou T C. Cancer Res. 2010 Jan. 15; 70(2):440-6.), as described elsewhere (Terranova-Barberio M, J Exp Clin Cancer Res. 2017; 36(1):177); Bruzzese et al, J Cell Physiol 2011, 226(9):2378-2390). […] The DRI determined the magnitude of dose reduction allowed for each drug when given in combination, compared with the concentration of a single agent that is needed to achieve the same effect. Clonogenic assay Colony formation assay is an in vitro cell survival assay based on the ability of a single cell to grow into a colony. The PANC1, ASPC1 and PANC28 cell lines were plated in 96 well plates with 50 cell/well while the BxPC3 cell line with 100 cell/well. […] The cells were grown for 10 days. The formed colonies were fixed with TCA (50%) and measured using a spectrophotometric dye incorporation assay (Sulforhodamine B or crystal violet). Microtissue formation assay Pancreatic cancer cell lines PANC1, ASPC1, PANC28, BxPC3 and MiaPaca were cultured as microtissues by the ultra-low attachment (ULA) System (PerkinElmer). The cancer cells were marked using a green fluorescent probe-cell traker (Thermo Fisher) while fibroblast (only for preliminary experiment to evaluate tissues formation) with red probe (PKH-26 Sigma Aldrich) according to manufacture instruction. […] 3D microtissues were maintained in the incubator and photographed by Opera Phenix microscope (Perkin Elmer) air objective magnification 5× and/or scored by Cell Titer-Glo® 3D Cell Viability Assay (Promega) by using a Multimode Reader Cytation 5 (Biotek).

The next experiment relates to COLO357. Kind of experiment: Cell proliferation assay (Sulforhodamine B), IC50. It is filed as cell-based. Particulars: Homo sapiens; COLO357, 96 hours of treatment; read-out: IC50 96 h mean ± SD. The protocol: as §1
The subject of the next experiment is MIAPACA. Kind of experiment: Cell proliferation assay (Sulforhodamine B), IC50. In kind it is cell-based. Particulars: Homo sapiens, MIA PaCa-2, 96 hours of treatment, read-out: IC50 96 h mean ± SD. The procedure: as §1
In the next experiment the test system is BxPC3. Kind of experiment: Cell proliferation assay (Sulforhodamine B), IC50. It is filed as cell-based. Particulars: Homo sapiens, BXPC-3; BxPC3, 96 hours of treatment; read-out: IC50 96 h mean ± SD. The procedure:
as §1

For the next experiment, the system named is L3.6pl. Kind of experiment: Cell proliferation assay (Sulforhodamine B), IC50. In kind it is cell-based. The settings on record: Homo sapiens, 96 hours of treatment, read-out: IC50 96 h mean ± SD. The procedure: as §1
The subject of the next experiment is ASPC1. In words: Cell proliferation assay (Sulforhodamine B), IC50. It is filed as cell-based. Particulars: Homo sapiens; ASPC1, 96 hours of treatment; read-out: IC50 96 h mean ± SD. The protocol: (§2) Cell proliferation was measured in 96-well plates in cells untreated and treated with described drugs as single agent or in combination. […] Drugs combination studies were based on concentration-effect curves generated as a plot of the fraction of unaffected (surviving) cells versus drug concentration after 96 h of treatment. Synergism, additivity, and antagonism were quantified after an evaluation of the Combination Index (CI), which was calculated by the Chou-Talalay equation with CalcuSyn software (Biosoft, Cambridge, UK-Chou T C. Cancer Res. 2010 Jan. 15; 70(2):440-6.), as described elsewhere (Terranova-Barberio M, J Exp Clin Cancer Res. 2017; 36(1):177); Bruzzese et al, J Cell Physiol 2011, 226(9):2378-2390). […] The DRI determined the magnitude of dose reduction allowed for each drug when given in combination, compared with the concentration of a single agent that is needed to achieve the same effect. Clonogenic assay Colony formation assay is an in vitro cell survival assay based on the ability of a single cell to grow into a colony. The PANC1, ASPC1 and PANC28 cell lines were plated in 96 well plates with 50 cell/well while the BxPC3 cell line with 100 cell/well. The day after the cells were treated with VPA, SIM alone (at dose of IC10, IC25 and IC50) and in combination. The cells were grown for 10 days. The formed colonies were fixed with TCA (50%) and measured using a spectrophotometric dye incorporation assay (Sulforhodamine B or crystal violet). Microtissue formation assay Pancreatic cancer cell lines PANC1, ASPC1, PANC28, BxPC3 and MiaPaca were cultured as microtissues by the ultra-low attachment (ULA) System (PerkinElmer). The cancer cells were marked using a green fluorescent probe-cell traker (Thermo Fisher) while fibroblast (only for preliminary experiment to evaluate tissues formation) with red probe (PKH-26 Sigma Aldrich) according to manufacture instruction. […] 3D microtissues were maintained in the incubator and photographed by Opera Phenix microscope (Perkin Elmer) air objective magnification 5× and/or scored by Cell Titer-Glo® 3D Cell Viability Assay (Promega) by using a Multimode Reader Cytation 5 (Biotek).

A further experiment has as its system PANC1. In words: Cell proliferation assay (Sulforhodamine B), IC50. It is filed as cell-based. Particulars: Homo sapiens, PANC-1; PANC1, 96 hours of treatment; read-out: IC50 96 h mean ± SD. The protocol:
as §2

The next experiment deals with KPC ID11. Kind of experiment: Cell proliferation assay (Sulforhodamine B), IC50. In kind it is cell-based, C57/BL6 mice. The settings on record: Mus musculus; KPC ID11, 96 hours of treatment; read-out: IC50 96 h mean ± SD. The protocol: (§3) FIG. 1. Pancreatic Cancer Cell lines features. A. Basal mRNA basal levels of EMT markers Vimentin and E-Cadherin in PDAC cell lines L3.6pl, BxPC3, COLO357, PANC28, PANC1, ASPC1 and MIAPACA2, in normal pancreatic cells HPDE cells, as well as in 2 established PDX-derived primary cells KPC ID11 and KPC ID95 were determined by qRT-PCR. […] Cells were grown for 48 h before preparation of cell lysates. Proteins were separated by SDS-PAGE and transferred to PVDF membranes using standard protocols. The membranes were probed with specific antibodies and Ponceau Red as total protein loading controls. Data represents representative results of at least three independent experiments.
as §1

The next experiment has as its system KPC ID95. Kind of experiment: Cell proliferation assay (Sulforhodamine B), IC50. Particulars: Mus musculus; KPC ID95, 96 hours of treatment; read-out: IC50 96 h mean ± SD. In kind it is cell-based, C57/BL6 mice. The procedure: as §3, §1
Experiment [1] relates to PANC1, ASPC1, PANC28 and BxPC3 cells. In words: Colony formation (clonogenic) assay. It is filed as cell-based, human. Particulars: high (IC25) and low (IC10) doses; all cell lines. The protocol:
FIG. 3. VPA plus SIMVASTATIN antiproliferative and pro-apoptotic effects in PDAC cell lines. A. Synergistic inhibition of colony formation by the VPA/SIM in ASPC1, PANC28, PANC1 and BxPC3 cell lines. […] Upper panel: representative imagines of one experiment; in the lower panel: the bar graphs represent the values of absorbance of colonies after SRB colorimetric assay. Statistical significance was determined by a 2 tailed, unpaired Student's T test (*P<0.05;** P<0.01). B.-C. Synergistic inhibition of microtissues formation by the VPA and SIM alone and in combination. […] The graphics represent the number of viable cells in 3D cell culture based on quantitation of the ATP content. […] Statistical significance was determined by a 2 tailed, unpaired Student's T test (*P<0.05;** P<0.01) (C). […] Antiproliferative effect was assessed in all PDAC cell lines by sulforhodamine B colorimetric assay (see Methods) and expressed as percentage of control. B Apoptosis was evaluated by Caspase 3/7 activity assay, in PANC1, PANC28 and ASPC1 cells untreated or treated for 24 h with VPA/SIM and/or GEM/TAX at the low doses (VPA 0.5 mM, SIM 0,625 μM, GEM 25 nM and TAX 1.25 nM) and evaluated by luminescence assay. […] Expression of cleaved PARP in PANC1, PANC28 and ASPC1 cell lines untreated or treated with VPA/SIM and/or GEM/TAX for 24 h was evaluated by western blotting. βActin was used as loading control. […]

A word on the IC50: it is the midpoint of a concentration-inhibition curve. Regarding `CC(C)c1c(C(=O)Nc2ccccc2)c(-c2ccccc2)c(-c2ccc(F)cc2)n1CC[C@@H](O)C[C@@H](O)CC(=O)O` [ATOR, Atorvastatin], the IC50 was 3.25 ± 0.35 µM in the experiment with MDA-PANC28; 12 ± 2.2 µM in the experiment with COLO357; 1.8 ± 0.06 µM with MIAPACA; 16.9 ± 4.3 µM with BxPC3; 11 ± 3.2 µM with L3.6pl; 4.55 ± 0.07 µM with ASPC1. In addition, the IC50 with PANC1 came to 14.4 ± 0.56 µM.

In the case of `CC[C@H](C)C(=O)O[C@H]1C[C@@H](C)C=C2C=C[C@H](C)[C@H](CC[C@@H]3C[C@@H](O)CC(=O)O3)[C@H]21` [LOV, Lovastatin], the 50% inhibitory concentration (IC50) was 4.05 ± 0.55 µM in the experiment on MDA-PANC28; 8 ± 0.5 µM in the experiment on COLO357; 3 ± 0.4 µM in the experiment with MIAPACA; 18.7 ± 6.95 µM in the experiment on BxPC3; 12.1 ± 0.33 µM in the experiment with L3.6pl; 8.83 ± 2.4 µM in the experiment with ASPC1. Also, in the experiment with PANC1, the IC50 was 28.2 ± 5.9 µM.

Consider `Nc1ccccc1NC(=O)c1ccc(CNC(=O)OCc2cccnc2)cc1` [MS-275], for which the IC50 in the experiment with MDA-PANC28 is 2.1 ± 0.14 µM; in the experiment with COLO357, above 8 µM; in the experiment with MIAPACA, 0.02 µM; with BxPC3 it was 0.9 ± 0.05 µM; in the experiment with L3.6pl, above 8 µM; in the experiment on KPC ID11, above 8 µM. For the same molecule, the IC50 was above 8 µM in the experiment with KPC ID95, 2.2 ± 0.14 µM with ASPC1 and 2.65 ± 0.07 µM with PANC1.

Take `Cc1[nH]c2ccccc2c1CCNCc1ccc(/C=C/C(=O)NO)cc1` [PAN, 2-(E)-N-hydroxy-3-[4 [[[2-(2-methyl-1H-indol-3-yl)ethyl]amino]methyl]phenyl]-2-propenamide]: the IC50 is 0.0224 ± 0.00056 µM in the experiment on MDA-PANC28; 0.065 ± 0.00703 µM in the experiment with COLO357; 0.016 ± 0.0014 µM with MIAPACA; 0.0243 ± 0.00503 µM in the experiment with BxPC3; above 0.16 µM in the experiment on L3.6pl; above 0.16 µM in the experiment on KPC ID11. The values for the IC50 with KPC ID95, with ASPC1 and in the experiment with PANC1 were above 0.16 µM, 0.0156 ± 0.00177 µM and 0.0137 ± 0.00275 µM, respectively.

As to `CCC(C)(C)C(=O)O[C@H]1C[C@@H](C)C=C2C=C[C@H](C)[C@H](CC[C@@H]3C[C@@H](O)CC(=O)O3)[C@H]21` [SIM, Simvastatin], the IC50 with MDA-PANC28 was 1.3 ± 0.07 µM; with COLO357 it was 6 ± 0.5 µM; with MIAPACA, 2 ± 0.21 µM; in the experiment on BxPC3, 11.2 ± 2.59 µM; in the experiment on L3.6pl it was 5.1 ± 0.8 µM; with KPC ID11, 2.3 ± 0.48 µM. Moreover, the half-maximal inhibitory concentration (IC50) in the experiment on KPC ID95 amounted to 1.05 ± 0.06 µM; in the experiment with ASPC1, 1.5 ± 0.28 µM; with PANC1 it was 9.2 ± 0.9 µM.

`O=C(CCCCCCC(=O)Nc1ccccc1)NO` [VOR, Vorinostat]: the IC50 in the experiment on ASPC1 stood at 0.74 ± 0.04 µM; in the experiment with PANC1, 0.82 ± 0.1 µM.

`CCCC(CCC)C(=O)O` [VPA, 2-propylpentanoic acid]: the half-maximal inhibitory concentration (IC50) in the experiment with MDA-PANC28 was 2800 ± 560 µM; in the experiment on COLO357, 1000 ± 100 µM; with MIAPACA, 750 ± 50 µM; in the experiment on BxPC3, 1820 ± 190 µM; with L3.6pl it was 2200 ± 120 µM; in the experiment with KPC ID11 it was 1800 ± 40 µM. In addition, the figures for the IC50 in the experiment with KPC ID95, in the experiment with ASPC1 and in the experiment with PANC1 were 1600 ± 380 µM, 3500 ± 70 µM and 4500 ± 70 µM, respectively. The colonies formation result in experiment [1] is “inhibited colonies formation”.
